Measured values from paper PMC5905603, “Purification and characterisation of a quorum quenching AHL-lactonase from the endophytic bacterium Enterobacter sp. CS66” (FEMS Microbiology Letters, 2018).

Test system: T1, AiiE
T1 construct: full-length ORF (ca. 750 bp) in pET-19m, E. coli Rosetta DE3; His6 tag cut off by TEV; 240B1
Test: phenol red proton-release assay (A557), Lineweaver-Burk
Type: biochemical, Enterobacter sp. CS66
Details: 1 mM HEPES, 200 mM NaCl, 50 uM phenol red, pH 7.5
Description: phenol red proton-release assay (A557), Lineweaver-Burk on AiiE

| Structure (SMILES) | Km [mM] |
| --- | --- |
| CCCC(=O)N[C@H]1CCOC1=O [C4-HSL] | 6.01 |
| CCCCCC(=O)N[C@H]1CCOC1=O [C6-HSL] | 7.88 |
| CCCCCCCC(=O)N[C@H]1CCOC1=O [C8-HSL] | 10.3 |
| CCCCCCCCCC(=O)N[C@H]1CCOC1=O [C10-HSL] | 14.9 |
| CCCCCCCCCCCC(=O)N[C@H]1CCOC1=O [C12-HSL] | 15.2 |
